Results on 49 molecules are retold here after US20090221559A1 (priority 2005, published 2009).

Data set [1] concerns the target T1, HCV NS5B polymerase (His-tagged, C-terminal 21 amino acid deleted NS5B, HC-J4) (Hepatitis C virus genotype 1b, UniProt O92972).
T1 construct: The cDNA encoding NS5B amino acid 1-570 (HC-J4, genotype 1b); His tag (His6, from pET-21b) (C); made in house; host or cells: E. coli BL21 (DE3)
Kind of data set: NS5b polymerase assay (biochemical RdRp assay, 3H-GTP incorporation, SPA beads). Further details: species or system HCV genotype 1b. An outline of the steps: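 3H-GTP incorporation into newly made RNA was captured on SPA beads added in EDTA after 2 h at 25 °C. Compounds in DMSO met preformed enzyme–template complex (200 nM truncated His-NS5B, HC-J4 1b; biotin-oligo(rG13)/poly(rC)) for 15 min at RT, then 600 nM GTP, 5 mM MgCl2, Tris pH 7.5 started polymerization.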

Data set [2] deals with HCV replicon RNA replication in Huh-7 luc/neo (Huh-Luc) cells. As to the kind of experiment: HCV replicon assay (stable replicon cell reporter assay, luciferase read-out). The data set is classed as cell-based, HCV type 1b. In outline:
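Three-day compound exposure used Huh-Luc cells, which harbour an autonomously replicating genotype 1b NS3-NS5B replicon expressing luciferase and neo^R. Luciferase signal served as the replication read-out, and dose-response curves came from several concentrations per compound.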
For orientation: A replicon is a self-replicating genome or part of one, used to study replication in cells.

Where [3] appears, read: NS5B Polymerase Assay IC50, 200 nM enzyme, 3H-GTP incorporation, 2 h at 25° C.
Setting [4] is: Hepatitis C virus, Huh-7, 72 h, read-out: Replicon Assay EC50, Huh-Luc cells, three days incubation, luciferase activity.
[5] abbreviates: NS5B Polymerase Assay IC50 (μM).
Setting [6] is: Hepatitis C virus, Huh-7, 72 h, read-out: Replicon Assay EC50 (μM), Huh-Luc cells, incubation of three days, luciferase activity.

SMILES strings stand for the structures. Like-named read-outs stand apart in the source and are kept apart here.

For orientation: melting point means the temperature of the solid-liquid transition. Broadly, the IC50 is the midpoint of a concentration-inhibition curve. Read a high IC50 as a need for much substance. In general, EC50 refers to the concentration that produces a half-maximal response.

T1 sequence (O92972 2417-3000, looked up, stated change not applied): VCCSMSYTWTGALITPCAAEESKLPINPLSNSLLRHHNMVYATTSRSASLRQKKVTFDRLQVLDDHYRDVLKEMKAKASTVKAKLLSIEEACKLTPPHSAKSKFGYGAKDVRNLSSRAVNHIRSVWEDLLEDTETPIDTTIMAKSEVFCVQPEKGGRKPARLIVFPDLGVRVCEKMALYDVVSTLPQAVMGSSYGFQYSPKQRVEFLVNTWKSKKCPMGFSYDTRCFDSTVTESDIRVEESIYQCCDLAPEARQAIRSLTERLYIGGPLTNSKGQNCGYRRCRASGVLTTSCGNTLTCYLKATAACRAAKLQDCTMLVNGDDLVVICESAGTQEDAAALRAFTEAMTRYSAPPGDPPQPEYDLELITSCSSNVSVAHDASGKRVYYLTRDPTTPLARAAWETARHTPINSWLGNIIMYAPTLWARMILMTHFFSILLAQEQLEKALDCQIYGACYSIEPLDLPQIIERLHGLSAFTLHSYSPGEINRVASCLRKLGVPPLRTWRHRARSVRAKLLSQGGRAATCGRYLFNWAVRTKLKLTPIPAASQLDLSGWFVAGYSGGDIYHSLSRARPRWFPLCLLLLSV

In turn, `CC(=O)N1c2ccccc2NC2=C(C(=O)CC(C)(C)C2)C1/C(Cl)=C/c1ccccc1` (centres unmarked) had a melting point of 258 °C.
Same read-out and setting: in the case of `CC(=O)N1c2c(CNCCCN(C)C)cccc2NC2=C(C(=O)CC(C)(C)C2)C1c1ccc(Cl)cc1Cl` (centres unmarked) it was 258 °C; in that of `CC(=O)N1c2c(cccc2C(=O)NCCCN(C)C)NC2=C(C(=O)CC(C)(C)C2)C1c1ccc(Cl)cc1Cl` (centres unmarked), 226 °C.
In turn, `CC(=O)N1c2ccc(CN(C)C)cc2NC2=C(C(=O)CC(C)(C)C2)C1c1ccc(Cl)cc1Cl` (centres unmarked) returned a melting point of over 260 °C.
The molecule `CC(=O)N1c2ccc(C(=O)O)cc2NC2=C(C(=O)CC(C)(C)C2)C1c1ccc(Cl)cc1Cl` (centres unmarked) yielded a melting point of over 250 °C.
The molecule `CC1(C)CC(=O)C2=C(C1)Nc1ccccc1N(C(=O)CC(=O)O)C2c1ccc(Cl)cc1Cl` (centres unmarked) returned a melting point of 200 °C.
`CC(=O)N1c2ccc(CCCN)cc2NC2=C(C(=O)CC(C)(C)C2)C1c1ccc(Cl)cc1Cl` (centres unmarked) yielded a melting point of 242 °C.
Take `COC(=O)c1ccc2c(c1)NC1=C(C(=O)CC(C)(C)C1)C(c1ccc(Cl)cc1Cl)N2C(C)=O` (centres unmarked): the melting point is over 250 °C.
For `COC(=O)c1ccc2c(c1)N(C(C)=O)C(c1ccc(Cl)cc1Cl)C1=C(CC(C)(C)CC1=O)N2` (centres unmarked), the melting point is over 250 °C.
In turn, `CC(=O)N1c2c(cccc2C(=O)O)NC2=C(C(=O)CC(C)(C)C2)C1c1ccc(Cl)cc1Cl` (centres unmarked) displayed a melting point of over 260 °C.
Same read-out and setting: the value for `CC(=O)N1c2c(CO)cccc2NC2=C(C(=O)CC(C)(C)C2)C1c1ccc(Cl)cc1Cl` (centres unmarked) was 200 °C; that for `CC(=O)N1c2c(CNCCN3CCOCC3)cccc2NC2=C(C(=O)CC(C)(C)C2)C1c1ccc(Cl)cc1Cl` (centres unmarked) was 236 °C.
As to `CC(=O)N1c2c(cccc2C(=O)NCCc2ccncc2)NC2=C(C(=O)CC(C)(C)C2)C1c1ccc(Cl)cc1Cl` (centres unmarked), the melting point is over 260 °C.
Regarding `CC(=O)N1c2c(CNCCc3ccncc3)cccc2NC2=C(C(=O)CC(C)(C)C2)C1c1ccc(Cl)cc1Cl` (centres unmarked), the melting point came to 212 °C.
Turning to `CCCN(C)Cc1cccc2c1N(C(C)=O)C(c1ccc(Cl)cc1Cl)C1=C(CC(C)(C)CC1=O)N2` (centres unmarked), the melting point is over 260 °C.
In the case of `CC(=O)N1c2ccc(CN)cc2NC2=C(C(=O)CC(C)(C)C2)C1c1ccc(Cl)cc1Cl` (centres unmarked), the melting point was over 260 °C.
`CC(=O)N1c2c(CN3CCOCC3)cccc2NC2=C(C(=O)CC(C)(C)C2)C1c1ccc(Cl)cc1Cl` (centres unmarked): the melting point is over 260 °C.
`C=CCCC(=O)N1c2ccccc2NC2=C(C(=O)CC(C)(C)C2)C1c1ccc(Cl)cc1Cl` (centres unmarked): the melting point came out at 200 °C.
As to `CNCc1ccc2c(c1)NC1=C(C(=O)CC(C)(C)C1)C(c1ccc(Cl)cc1Cl)N2C(C)=O` (centres unmarked), the melting point is over 260 °C.
Regarding `CC1(C)CC(=O)C2=C(C1)Nc1cc(C(=O)O)ccc1NC2c1ccc(Cl)cc1Cl` (centres unmarked), the melting point is over 250 °C.
Molecule `CC1(C)CC(=O)C2=C(C1)Nc1cc(CO)ccc1NC2c1ccc(Cl)cc1Cl` (centres unmarked) registered a melting point of 160 °C.
Molecule `CC1(C)CC(=O)C2=C(C1)Nc1ccc(CO)cc1NC2c1ccc(Cl)cc1Cl` (centres unmarked) showed a melting point of 168 °C.
Still for that read-out and setting: in the case of `CCOC(=O)c1cccc2c1NC(c1ccc(Cl)cc1Cl)C1=C(CC(C)(C)CC1=O)N2` (centres unmarked) it was 208 °C; in that of `CC1(C)CC(=O)C2=C(C1)Nc1cccc(CO)c1NC2c1ccc(Cl)cc1Cl` (centres unmarked), over 260 °C.
Consider `CC(=O)N1c2ccccc2NC2=C(C(=O)CC(C)(C)C2)C1c1ccc(Cl)cc1Cl` (single isomer, unassigned) [compound 38, 10-Acetyl-11-(2,4-dichlorophenyl)-2,3,4,5,10,11-hexahydro-3,3-dimethyl-1H-dibenzo[b,e][1,4]diazepin-1-one], for which the melting point was over 250 °C. It took 2.84 µM to reach half-maximal inhibition in data set [1] (setting [3]) (IC50). Moreover, in data set [2] (read-out: Replicon Assay EC50, Huh-Luc cells, three days incubation, luciferase activity), the concentration for a half-maximal effect (EC50) is 23.8 µM.
As for `CC(=O)N1c2ccccc2NC2=C(C(=O)CC(C)(C)C2)C1c1ccc(OCc2ccccc2)c(Cl)c1` (single isomer, unassigned) [compound 304, 10-acetyl-11-[4-benzyloxy-3-chlorophenyl]-3,3-dimethyl-2,3,4,5,10,11-hexahydro-1H-dibenzo[b,e][1,4]diazepin-1-one], the melting point was 130 °C. The molecule also displayed a concentration for half-maximal inhibition (IC50) in data set [1] (setting [3]) of 0.46 µM. In addition, the EC50 in data set [2] (setting [4]) was determined as 7.59 µM.
The molecule `CC1(C)CC(=O)C2=C(C1)Nc1ccccc1N(C(=O)c1ccccc1)C2c1ccc(Cl)cc1Cl` (centres unmarked) [compound 45] registered a melting point of over 250 °C. Further, in data set [1] (setting [3]), the IC50 was 4.83 µM. Moreover, the EC50 in data set [2] (setting [4]) was found to be 6.79 µM.
On to `CC1(C)CC(=O)C2=C(C1)Nc1ccccc1N(C(=O)N1CCCCC1)C2c1ccc(Cl)cc1Cl` (centres unmarked) [compound 155], for which the melting point is over 260 °C. The molecule further displayed an IC50 in data set [1] (setting [3]) of over 133 µM.
The molecule `CC(=O)N1c2cc(C#N)ccc2NC2=C(C(=O)CC(C)(C)C2)C1c1ccc(Cl)cc1Cl` (centres unmarked) [compound 318] gave a melting point of over 250 °C. In data set [1] (setting [3]), this molecule yielded an IC50 of 67.1 µM.
For the molecule `CC(=O)N1c2ccccc2N(C)C2=C(C(=O)CC(C)(C)C2)C1c1ccc(Cl)cc1Cl` (centres unmarked) [compound 322], the melting point was 145 °C. In data set [2] (setting [4]), the EC50 stood at 44.1 µM.
Molecule `O=C1C[C@@H](c2ccccc2)CC2=C1[C@H](c1coc3ccccc3c1=O)Nc1ccccc1N2` [compound 488] displayed an IC50 in data set [1] (setting [5]) of over 42.7 µM. The half-maximal effective concentration (EC50) in data set [2] (setting [6]) came out at 17.8 µM.
In the same order, the values of `COc1ccc([C@@H]2CC(=O)C3=C(C2)Nc2ccccc2N[C@H]3c2c[nH]c3ccccc23)cc1` [compound 489] are over 42.7 µM and 5.91 µM.
In the same order, the values of `COc1ccc([C@@H]2CC(=O)C3=C(C2)Nc2ccccc2N[C@H]3c2ccc(C)s2)cc1` [compound 490] are over 42.7 µM and 24.9 µM.
In the same order, the values of `O=C1C[C@@H](c2ccccc2)CC2=C1[C@H](c1ccc3c(c1)OCO3)Nc1ccc(C(=O)c3ccccc3)cc1N2` [compound 491] are over 42.7 µM and 12.1 µM.
In the case of `O=C1C[C@@H](c2ccc3c(c2)OCO3)CC2=C1[C@H](c1ccc3c(c1)OCO3)Nc1ccccc1N2` [compound 492], the IC50 in data set [1] (setting [5]) was over 42.7 µM. The EC50 in data set [2] (setting [6]) turned out to be 11 µM.
In data set [1] (setting [5]), `O=C1C[C@@H](c2ccc3c(c2)OCO3)CC2=C1[C@H](c1cc3c(cc1Br)OCO3)Nc1ccccc1N2` [compound 493] yielded an IC50 of over 42.7 µM. In data set [2] (setting [6]), the EC50 was determined as 1.3 µM.
For the molecule `COc1ccc([C@@H]2CC(=O)C3=C(C2)Nc2ccccc2N[C@H]3c2ccc3c(c2)OCO3)cc1OC` [compound 494], the IC50 in data set [1] (setting [5]) was over 42.7 µM. Further, the EC50 in data set [2] (setting [6]) amounted to 21.7 µM.
Regarding `COc1ccc([C@@H]2CC(=O)C3=C(C2)Nc2ccccc2N[C@H]3c2coc3ccccc3c2=O)cc1OC` [compound 495], the half-inhibitory concentration (IC50) in data set [1] (setting [5]) was over 42.7 µM. Besides, the EC50 in data set [2] (setting [6]) came out at 3.69 µM.
Molecule `COc1ccc([C@@H]2CC(=O)C3=C(C2)Nc2ccccc2N[C@H]3c2cccc3ccccc23)cc1OC` [compound 496] registered an IC50 in data set [1] (setting [5]) of over 42.7 µM. The EC50 in data set [2] (setting [6]) worked out at 22.9 µM.
Molecule `CC1(C)CC(=O)C2=C(C1)Nc1ccccc1NC2c1cccnc1` (centres unmarked) [compound 499] showed an IC50 in data set [1] (setting [5]) of over 42.7 µM. Also, the 50% effective concentration (EC50) in data set [2] (setting [6]) is over 32 µM.
`CCn1c2ccccc2c2cc(C3Nc4ccccc4NC4=C3C(=O)CC(C)(C)C4)ccc21` (centres unmarked) [compound 501] yielded a concentration for half-maximal inhibition (IC50) in data set [1] (setting [5]) of over 42.7 µM. In addition, in data set [2] (setting [6]), the EC50 was determined as 19.8 µM.
With `CC1(C)CC(=O)C2=C(C1)Nc1ccccc1NC2c1coc2c(Cl)cc(Cl)cc2c1=O` (centres unmarked) [compound 502], the IC50 in data set [1] (setting [5]) was over 42.7 µM. For the same molecule, the EC50 in data set [2] (setting [6]) amounted to 13.2 µM.
In the same order, the values of `CCn1c2ccccc2c2cc(C3Nc4cc(C)c(C)cc4NC4=C3C(=O)CC(C)(C)C4)ccc21` (centres unmarked) [compound 504] are 39.1 µM and 17.1 µM.
In data set [1] (setting [5]), `CC1(C)CC(=O)C2=C(C1)Nc1ccccc1NC2c1cc2c(cc1[N+](=O)[O-])OCO2` (centres unmarked) [compound 505] came in with an IC50 of over 42.7 µM. The EC50 in data set [2] (setting [6]) was 13.5 µM.
On to `CN1c2ccccc2NC2=C(C(=O)CC(C)(C)C2)C1c1ccc(Cl)cc1Cl` (centres unmarked) [compound 507, 11-(2,4-Dichlorophenyl)-2,3,4,5,10,11-hexahydro-3,3,10-trimethyl-1H-dibenzo[b,e][1,4]diazepin-1-one], for which the IC50 in data set [1] (setting [5]) was over 42.7 µM. Besides, the EC50 in data set [2] (setting [6]) was 4.63 µM.
`CCN1c2ccccc2NC2=C(C(=O)CC(C)(C)C2)C1c1ccc(Cl)cc1Cl` (centres unmarked) [compound 508, 11-(2,4-dichlorophenyl)-10-ethyl-2,3,4,5,10,11-hexahydro-3,3-dimethyl1H-dibenzo[b,e][1,4]diazepin-1-one]: in data set [1] (setting [5]), the IC50 was over 42.7 µM. The EC50 in data set [2] (setting [6]) was determined as 1.37 µM.
In the same order, the values of `CCCN1c2ccccc2NC2=C(C(=O)CC(C)(C)C2)C1c1ccc(Cl)cc1Cl` (centres unmarked) [compound 509, 11-(2,4-Dichlorophenyl)-2,3,4,5,10,11-hexahydro-3,3-dimethyl-10-propyl-1H-dibenzo[b,e][1,4]diazepin-1-one] are over 42.7 µM and 0.894 µM.
In turn, `COC(=O)CN1c2ccccc2NC2=C(C(=O)CC(C)(C)C2)C1c1ccc(Cl)cc1Cl` (centres unmarked) [compound 510] displayed an IC50 in data set [1] (setting [5]) of over 133 µM. The EC50 in data set [2] (setting [6]) is 4.56 µM.
For `CC1(C)CC(=O)C2=C(C1)Nc1ccccc1N(CC(=O)O)C2c1ccc(Cl)cc1Cl` (centres unmarked) [compound 511], the IC50 in data set [1] (setting [5]) turned out to be 1.9 µM. The EC50 in data set [2] (setting [6]) was over 100 µM.
